Assay results taken from paper PMC10747339 (Pharmaceutics, 2023).
Structures can show the parent of a compound that is named as a salt. Where two headings read alike, the source gives them in different places.

What was measured:
[1] = Phase solubility studies with cyclodextrins (Higuchi and Connors), complexation efficiency (Loftsson); format: physicochemical; settings: phosphate buffer; for complexation efficiency (CE), range over the media: citrate buffer, WFI
Procedure: Cyclodextrins solutions (from 26 mM to 264 mM) were prepared within sodium citrate (50 mM, pH 3) and sodium phosphate (80 mM, pH 2.7) buffer solutions and WFI. […] Aliquots were drawn from these suspensions and filtered through a Pall Life Science (Cortland, NY, USA) 0.45 µm filter with a Versapore acrylic copolymer membrane before quantification. The pH of these suspensions was checked before filtration.
(§1) Quantification of mefloquine was performed using a Shimadzu® Nexera® high-performance liquid chromatography system (Kyoto, Japan). One microliter of samples was eluted on a 150 mm × 2.1 mm 1.7 µm octadodecyl Acquity® column (Waters, Milford, CT, USA) at 40 °C using an isocratic ammonia buffer(120 mM, pH 10):acetonitrile:methanol (40:40:20, v/v/v) mobile phase at a 1 mL/min flow rate. The samples were diluted to 1/10th with the mobile phase before injection. Quantification was performed at 283 nm with daily made calibration curves. This method was linear for concentrations ranging from 10 to 5000 mg/L. The limit of quantification was estimated at […] and the repeatability and intermediate fidelity were good (coefficient of variation < 5%) for concentrations ranging from 50 to 5000 mg/L.
Complexation efficiencies (CE) were determined from the phase solubility studies using the Loftsson method. CE = (D/CD)/(CD) = Slope/(1 − Slope) where (D/CD) is the concentration of dissolved complex; (CD) is the concentration of dissolved free CD, and Slope is the slope of the phase-solubility profile.

[2] = 19F NMR titration, association constant by 1:1 isotherm fit; format: physicochemical; settings: D2O, 300 K, total 5 mM
Procedure: The stoichiometry of the complex was determined using Job’s method. […] The total molar concentration and the total volume were kept constant at 5 mM and 500 µL, respectively, and the molar ratio of each component was varied from 0 to 1. Corresponding ^19F NMR spectra were recorded. The observation of chemical shifts varying in a linear fashion with the concentrations of bound species was obtained and affords the corresponding Job plots as described elsewhere.
^19F NMR Titrations: the same experimental data set of Job plot titrations was used. The association constants were obtained by fitting a 1:1 isotherm according to the programs available at http://app.supramolecular.org/bindfit/ (accessed on 19 October 2023).

[3] = Solubility of mefloquine hydrochloride in buffer solutions and water for injection; format: physicochemical; settings: for solubility at 24 h: thermodynamic from solid
Procedure: These suspensions were sonicated for 1 h and stirred for 24 h at 24 °C and protected from the light. Aliquots were drawn from these suspensions and filtered through a Pall Life Science (Cortland, NY, USA) 0.45 µm filter with a Versapore acrylic copolymer membrane before quantification. The pH of these suspensions was checked before filtration.
as §1

caco-2 = test system: caco-2; parameters: method as in PMID 27045516; settings: cited from earlier work
[4] = piperidine's basicity; cited from earlier work
p-Gp = settings: cited from earlier work
[5] = Photostability study (ICH), HPLC content; format: physicochemical; settings: 168 days; for change in mefloquine content: 25 °C, 60% RH, 7500 Lux and 1.1 W/m^2; for color change: light exposure
Procedure: The solutions were stored in type 1 glass vials (n = 3 for each solution) sealed with a rubber septum. […] Photostability studies were conducted using the Binder KBF P240 climatic chamber (Tuttligen, Germany), equipped with UVA and visible illumination sources set at 7500 Lux and 1.1 W/m^2. The chamber was maintained at a temperature of 25 ± 2 °C and a relative humidity of 60 ± 5% during the 6-months study.
The method was adapted using pharmacopeia recommendations for utilization with the Phenomenex® Kinetex® 2.6 µm, 150 × 2.1 mm column (Torrance, CA, USA), featuring the same octadecyl stationary phase with a smaller particle size. By employing this column, the flow rate was optimized at 0.4 mL/min.

[6] = hydrochloride salt, cited from earlier work

Compound: CC(O)COC[C@H]1O[C@@H]2O[C@H]3[C@H](O)[C@@H](O)[C@@H](O[C@H]4[C@H](O)[C@@H](O)[C@@H](O[C@H]5[C@H](O)[C@@H](O)[C@@H](O[C@H]6[C@H](O)[C@@H](O)[C@@H](O[C@H]7[C@H](O)[C@@H](O)[C@@H](O[C@H]8[C@H](O)[C@@H](O)[C@@H](O[C@H]1[C@H](O)[C@H]2O)O[C@@H]8COCC(C)O)O[C@@H]7COCC(C)O)O[C@@H]6COCC(C)O)O[C@@H]5COCC(C)O)O[C@@H]4COCC(C)O)O[C@@H]3COCC(C)O (stereo partly drawn) [HP-β-CD, hydroxypropyl-β-cyclodextrin]
- complexation efficiency (CE), range over the media [1]: 0.1–0.13
- average association constant (K1:1) [2]: 140.5 M⁻¹

Compound: OC(c1cc(C(F)(F)F)nc2c(C(F)(F)F)cccc12)C1CCCCN1 (stereo not drawn) [mefloquine, mefloquine hydrochloride]
- solubility at 24 h ([3]; aqueous buffer, citrate buffer, pH 2.7, 24 °C): 640 µg/mL
- solubility at 24 h ([3]; aqueous buffer, phosphate buffer, pH 2.6, 24 °C): 4810 µg/mL
- solubility at 24 h ([3]; aqueous buffer, phosphate buffer, pH 6.5, 24 °C): 780 µg/mL
- change in solubility, citrate buffer compared to phosphate buffer ([3]; same pH value): eight-fold decrease
- solubility compared with previously reported ([3]; versus ref 4): two-fold higher
- solubility at 24 h ([3]; water for injection (purified water), purified water, final pH 4.6, 24 °C): 4120 µg/mL
- permeability (caco-2): around 9 × 10^−6 cm/s
- pKa [4]: 8.6
- p-Gp inhibition (p-Gp): moderate
- change in mefloquine content ([5]; 10 mg/mL in 200 mM RAMEB solution): No substantial change
- change in mefloquine content ([5]; 10 mg/mL in acetonitrile:water (50:50)): No substantial change
- color change ([5]; RAMEB solution): No color change
- color change ([5]; acetonitrile:water (50:50) solution): No color change
- additional peaks (degradation products) in chromatograms ([5]; both solutions): did not reveal any additional peak appearances
- solubility ([6]; acetate buffer, pH 4.5, 37 °C): 1950 µg/mL
- solubility ([6]; water, pH 6.5, 37 °C): 1806 µg/mL

Compound: randomly methylated β-cyclodextrin [RAMEB]
- complexation efficiency (CE), range over the media [1]: 0.31–0.38
- equivalents of cyclodextrin to achieve target concentration of 26.5 mM (10 mg/mL) mefloquine [1]: approximately two
- average association constant (K1:1) [2]: 333.4 M⁻¹
